{"source": "patent US20240335464A1", "about": "“ADMINISTRATION OF STING AGONIST, CHECKPOINT INHIBITORS, AND RADIATION” (Takeda Pharmaceutical Company Limited, priority 2020, published 2024)", "key": {"[1]": {"test_system": "CT26 murine colorectal carcinoma tumor", "test": "Study 4: CT26 subcutaneous tumor model, anti-tumor efficacy", "type": "in vivo, female Balb/c mice", "conditions": "for GRI (%) Day 11: vs vehicle", "protocol": "Study 4: CT26 is a murine colorectal carcinoma cell line. Eight-week-old female Balb/c mice (Jackson Labs, Maine) were inoculated subcutaneously with 0.2×10^6 CT26 tumor cells and monitored for tumor growth. Once the tumors reached an average of 100-125 mm^3, animals were irradiated with either mock irradiation or 8 Gy of focal beam irradiation (Study Day 0). Animals were then dosed intravenously with either vehicle (PBS) or 0.25 mg/kg of Compound No. 14 on a QW×3 schedule beginning on Study Day 1. Anti-mPD-1 antibody (clone RMP1-14, BioXCell) treatment was administered intraperitoneally twice weekly starting on Study Day 1 with a concentration of 10 mg/kg for 3 weeks. Animals were monitored for tumor volumes and body weight changes twice weekly throughout the study once they reached their humane endpoint. GRI was calculated on the last day with animals remaining in the vehicle group (Study Day 11).\n(§1) Study 4: A 5 mg/mL stock solution of Compound No. 14 was formulated in PBS at the final concentration of 0.0667 mg/mL and administered intravenously (IV). Final doses received were 0.25 mg/kg. […] Compound No. 14 was administered on a QW schedule for 3 doses in single agent treatment group and in combination treatment groups beginning on Day 1. Dose formulation of Compound No. 14 was prepared once and utilized for dosing on each treatment day.\nAnti-mPD-1 or isotype control was administered concurrent with Compound No. 14 or vehicle control on a BIW schedule for 3 doses in single agent treatment groups and in combination treatment groups.\n(§2) Studies 4 and 5: Radiation treatment for Studies 4 and 5 were performed using focal beam radiation with volumentric image guidance from computer tomography scans on the SmART (Small animal image-guided radiotherapy) platform (Precision XRay Inc., North Branford, CT). Animals received 4.52 Gy/min of radiation and approximately 1.8 min was needed to reach 8 Gy dose delivery (Study 4) or […] was needed to reach 16 Gy dose delivery (Study 5). Animals were anesthetized during imaging and radiation treatment using 1-2% isoflurane.\n(§3) Growth Rate Inhibition: The differences in the tumor growth trends over time between pairs of treatment groups were assessed by fitting each animal's data to a simple exponential growth model and comparing the mean growth rates of the two groups, as described in more detail below. The difference in the growth rates was summarized by the GRI, which is the reduction in growth rate experienced by the treatment group relative to that of the reference group, expressed as a fraction of the vehicle growth rate.\n(§4) μT and μC are the mean tumor growth rates for the treatment and reference groups, respectively. μV is the mean tumor growth rate for the vehicle group, which in most cases is the same as the reference group.\n(§5) A GRI greater than 100% is interpreted as tumor regression when the vehicle group is the same as the reference group. A negative value of the GRI means that the tumors in the treatment group grew faster than the tumors in the reference group. Statistical significance was determined using an unpaired t-test.\n(§6) Tumor Growth Rate Computation: Low tumor volumes can cause problems with the data analysis, so all measurements below 25 cubic mm (including 0 values) were excluded from the analysis. After this exclusion step, the tumor volume was assumed to follow an exponential growth model. More specifically, for a given animal and treatment group,\n(§7) where Vi is the tumor volume at the i^th time point. Here, a is the initial log volume, b is the tumor growth rate, and t1 is the measurement time in days. εi is the residual error term, which was assumed to be uncorrelated and drawn from a normal distribution.\nThis model was fit separately for each animal within each treatment group. If an animal was sacrificed or died early, but at least two unique time points were measured (including baseline), then the data up to that point was used to estimate the growth rate. […]"}, "[2]": {"test_system": "B16F10 ova melanoma tumor", "test": "Study 5: B16F10-Ova subcutaneous tumor model, anti-tumor efficacy", "type": "in vivo, female C57Bl/6 mice", "conditions": "for GRI (%) (Day 10): vs vehicle", "protocol": "Study 5: B16F10-Ova is a cell line derived from B16F10 melanoma that expresses chicken ovalbumin. Seven-week-old female C57Bl/6 mice (Jackson Labs, Maine) were inoculated subcutaneously with 0.04×10^6 B16F10 ova tumor cells and monitored for tumor growth. Once the tumors reached an average of 100-250 mm^3, animals were irradiated with either mock irradiation or 16 Gy of focal beam irradiation (Study Day 0). Animals were then dosed intravenously with either vehicle (PBS) or 0.25 mg/kg of Compound No. 14 on a Q3Dx3 scheduled beginning on Study Day 1. Animals were monitored for tumor volumes and body weight changes twice weekly throughout the study once they reached their humane endpoint. GRI was calculated on the last day with animals remaining in the vehicle group (Study Day 10).\nas §1, with “5:” for “4:”, “Q3D” for “QW”\nas §2, §3, §4, §5, §6, §7\nThis model was fit separately for each animal within each treatment group. If an animal was sacrificed or died early, but at least two unique time points were measured (including baseline), then the data up to that point was used to estimate the growth rate. If the animal had measurements at less than two time points, then the animal was automatically excluded from the analysis.\nIn rare cases, the estimated growth rate for one or more animals might be very different from the other animals within the same group. […]"}, "[3]": {"conditions": "TG02 Compound No. 14 0.25 mg/kg QWx3 IV, single agent"}, "[4]": {"conditions": "TG05 Compound No.14 0.25 mg/kg QWx3 IV + Radiation 8 Gy, through Day 11"}, "[5]": {"conditions": "TG02 Compound No.14 0.25 mg/kg Q3Dx3 IV, single agent"}, "[6]": {"conditions": "TG04 Compound No.14 0.25 mg/kg Q3Dx3 IV + radiation 16 Gy, through Day 10"}}, "data": [{"compound": "Nc1ncnc2c1ncn2[C@@H]1O[C@@H]2COP(=O)(S)O[C@@H]3[C@H](O)[C@@H](COP(=O)(S)O[C@H]2[C@H]1F)O[C@H]3n1cc(F)c2c(=O)[nH]cnc21", "note": "(stereo partly drawn) [Compound No. 14]", "values": [{"measurement": "Number of Animals Removed", "setting": "[1]; [3]", "result": 0}, {"measurement": "GRI (%) Day 11", "setting": "[1]; [3]", "result": 13, "unit": "%"}, {"measurement": "Number of Animals Removed", "setting": "[1]; TG05 Compound No. 14 0.25 mg/kg QWx3 IV + Radiation 8 Gy", "result": 0}, {"measurement": "GRI (%) Day 11", "setting": "[1]; TG05 Compound No. 14 0.25 mg/kg QWx3 IV + Radiation 8 Gy (Day 0)", "result": 88, "unit": "%"}, {"measurement": "Combination Assessment", "setting": "[1]; [4]", "result": "Additive"}, {"measurement": "Synergy Score %", "setting": "[1]; [4]", "result": "−12", "unit": "%"}, {"measurement": "Number of Animals Removed", "setting": "[2]; [5]", "result": 4}, {"measurement": "GRI (%) (Day 10)", "setting": "[2]; [5]", "result": 11, "unit": "%"}, {"measurement": "Number of Animals Removed", "setting": "[2]; TG04 Compound No.14 0.25 mg/kg Q3Dx3 IV + radiation 16 Gy", "result": 0}, {"measurement": "GRI (%) (Day 10)", "setting": "[2]; TG04 Compound No.14 0.25 mg/kg Q3Dx3 IV + radiation 16 Gy (Day 0)", "result": 67, "unit": "%"}, {"measurement": "Combination Assessment", "setting": "[2]; [6]", "result": "Additive"}, {"measurement": "Synergy Score %", "setting": "[2]; [6]", "result": "−21", "unit": "%"}]}]}
